Experimental findings from patent publication US20050008686A1, “Cochleate preparations of fragile nutrients” (priority 2003, published 2005) are described below.

This series can be described thus: solubility of beta-carotene in potential solvents. The note with it: for solubility: organic solvent or mixture. The series is classed as physicochemical. From the text:
The present invention is based, at least in part, on the discovery that one or more solvents such as tetrahydrofuran (THF), can be employed to form an improved cochleate with fragile nutrients such as beta-carotene at desirable concentrations. Suitable solvents and solvent mixtures that can be employed in connection with the present invention and can readily be identified by a person of skill in the art employing the teachings provided herein and knowledge in the art. For example, beta-carotene was added to a variety of potential solvents, and was found not soluble in either water or DMSO, and slightly soluble in methyl pyrrolidone (less than 1 mg/ml). Heptane also was considered, but heptane is not miscible with water and thus cannot readily be employed in the formation of cochleates. […] Similarly, solvents can be identified for other fragile nutrients and lipids in accordance with the present invention.

As a reminder, the solubility is the dissolved amount per volume that the medium holds.

≈ marks a conversion by molar mass, not a printed value. Where two headings read alike, the source gives them in different places.

With `CC1=C(/C=C/C(C)=C/C=C/C(C)=C/C=C/C=C(C)/C=C/C=C(C)/C=C/C2=C(C)CCCC2(C)C)C(C)(C)CCC1` [beta-carotene], the solubility (solvent methyl pyrrolidone, slightly soluble, read-out: solubility in methyl pyrrolidone) is less than 1000 µg/mL and the solubility (solvent tetrahydrofuran (THF), read-out: solubility in THF) worked out at 10000 µg/mL (≈ 18.6 mM). For the same molecule, the “solubility in DMSO” value (solvent DMSO) is “not soluble”. The solubility in water entry (solvent water) is “not soluble”.
